In US20170107185A1, “SUBSTITUTED [1,2,4]TRIAZOLE AND IMIDAZOLE COMPOUNDS AS FUNGICIDES” (BASF SE, priority 2014, published 2017):

What follows are molecules tested on Botrytis cinerea (assay: M1 Activity against the grey mold Botrytis cinerea in the microtiterplate test (Botrci)). Details: 31 ppm, 405 nm, 7 days after inoculation; compound-free control 100%.
Type: cell-based

Row | SMILES | growth (relative growth in % of the pathogen) [%]
1 | OC(Cn1cncn1)(c1ccc(-c2ccccc2)cc1Cl)C1CC1 (stereo not shown) [Compound I-1] | 0
2 | CC(C)(C)C(O)(Cn1cncn1)c1ccc(-c2ccccc2)cc1Cl (stereo not shown) [Compound I-7] | 0
3 | CC(O)(Cn1cncn1)c1ccc(-c2ccccc2)cc1Cl (stereo not shown) [Compound I-8] | 0
4 | C=CCCC(O)(Cn1cncn1)c1ccc(-c2ccccc2)cc1Cl (stereo not shown) [Compound I-9] | 0
5 | CC#CC(O)(Cn1cncn1)c1ccc(-c2ccccc2)cc1Cl (stereo not shown) [Compound I-10] | 0
6 | CCC(O)(Cn1cncn1)c1ccc(-c2ccccc2)cc1Cl (stereo not shown) [Compound I-13] | 0
7 | CC(F)(F)C(O)(Cn1cncn1)c1ccc(-c2ccccc2)cc1Cl (stereo not shown) [Compound I-14] | 0
